Results: patent US10138212B2, “Aminoquinazoline compounds as A2A antagonist” (Merck Sharp & Dohme Corp., priority 2015, dated 2018)

Assays:
[1] = target: human A2a receptor (Homo sapiens (Human), UniProt P29274); test: A2a competition binding assay using Scintillation Proximity technology; conditions: 0.25 μg of membranes from HEK293 cells expressing the human A2a receptor
Procedure: (§1) Binding affinities of compounds of the invention for the human A2a receptor were determined in a competition binding assay using Scintillation Proximity technology. Thus, 1* μg, or preferably 0.25 μg of membranes from HEK293 cells expressing the human A2a receptor were incubated with a compound of the invention at concentrations ranging from 3000 nM to 0.15 nM in a reaction mixture containing also 0.5 nM of a tritiated form of 5-amino-7-[2-phenethyl]-2-(furan-2-yl)-7H-pyrazolo[4,3-e][1,2,4]triazolo[1,5-c]pyrimidine (the tritiated compound) and 25 μg of wheat germ agglutin-coated yttrium silicate SPA beads for one hour at room temperature with agitation. The beads were then allowed to settle to the bottom of the wells for 1 hr, after which the membrane-associated radioactivity was determined by scintillation counting in a TopCount microplate reader. Ki values were determined using the Cheng-Prusoff equation.
HEK293 cells expressing the human, rat, dog or monkey adenosine 2a receptor (Purchased from Perkin-Elmer # RBHA2AM400UA).
The Tritiated compound was prepared in-house by MRL Radiochemistry according to published methods.
Wheat germ agglutinin-coated yttrium silicate SPA beads (GE Healthcare #RPNQ0023). Dilute to 25 mg/ml in assay buffer.
Assay Buffer was prepared in house: Dulbecco's calcium and magnesium free phosphate buffered saline+10 mM MgCl2
Adenosine deaminase from calf intestine, 10 mg/2 ml (Roche #10 102 105 001).
A2a antagonist standard (9-chloro-1-(2-furanyl)-[1,2,4]triazolo1,5-c]quinazolin-5-amine from Tocris Bioscience)
Make eight 1:3 serial dilutions in 100% DMSO from a 3 mM compound stock
Transfer 50 nl of compound into a 384-well OptiPlate (Perkin Elmer).
Typically, final concentrations of compound used in the assay ranged from 3000 nM to 0.152 nM.
Dilute a solution of the Tritiated compound to 1.25 nM in assay buffer. This is a 2.5× solution. The final concentration in the assay is 0.5 nM. Calculate the concentration by counting two 5 μl aliquots.
Use *1 ug or preferrably 0.25 ug of membrane/well. Dilute membranes to 9.7 μg/ml in assay buffer. Treat with 20 ug/ml adenosine deaminase (ADA) for 15 minutes at room temperature to degrade endogenous adenosine.
Use 25 μg/well wheat germ agglutinin-coated yttrium silicate SPA beads.
Mix ADA-treated membranes and SPA beads together for 30 min prior to assay.
To the Perkin-Elmer Optiplate-384 containing the compound titration add 20 μl of 2.5× solution of the Tritiated compound and 30 μl of the membrane-bead mixture. Incubate for one hour at room temperature with agitation.
Include total binding (assay buffer+1% DMSO) and non-specific binding (CGS15943, 1 μM) wells.
Allow the beads to settle for one hour.
A curve fitting program (i.e., Prism, Activity Base, Chemcart) is used to determine the EC50. The Ki value is calculated using the Cheng-Prusoff equation. Ki=EC50/(1+(radioligand concentration/Kd))
Using the foregoing assay method, the Ki results were obtained using the compounds of the invention described in Tables IIIa, IIIb, and IV. Each example compound tested is reported in the following format: Example number: A2a Ki reported in nM. Thus, for example, the compound Ex-1 was determined to have an Ki using the above-described assay and calculations, of 10.0 nM.

[2] = target: human A1 receptor (Homo sapiens (Human), UniProt P30542); test: A1 competition binding assay using Scintillation Proximity technology; selectivity = A1 binding Ki / A2a binding Ki; conditions: A1 binding Ki divided by A2a binding Ki
human A1 receptor, sequence (P30542 whole entry): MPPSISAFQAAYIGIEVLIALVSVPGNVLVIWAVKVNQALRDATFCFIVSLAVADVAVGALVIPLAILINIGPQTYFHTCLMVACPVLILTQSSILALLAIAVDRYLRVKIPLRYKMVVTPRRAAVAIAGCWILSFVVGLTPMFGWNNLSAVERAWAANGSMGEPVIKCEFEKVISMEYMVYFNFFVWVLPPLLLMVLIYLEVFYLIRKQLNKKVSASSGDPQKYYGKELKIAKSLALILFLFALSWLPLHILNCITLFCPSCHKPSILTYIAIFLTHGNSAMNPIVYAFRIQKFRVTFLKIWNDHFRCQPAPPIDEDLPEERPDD
Procedure: as §1, with “A1” for “A2a”, “5” for “1* μg, or preferably 0.25 μg”, “CHO-K1” for “HEK293”, “0.7” for “0.5”, “8-Cyclopentyl-1,3-dipropylxanthine” for “5-amino-7-[2-phenethyl]-2-(furan-2-yl)-7H-pyrazolo[4,3-e][1,2,4]triazolo[1,5-c]pyrimidine”, “in a similar fashion described with A2a binding.” for “using the Cheng-Prusoff equation.”
• Cells expressing the human, rat, dog or monkey adenosine 1 receptor (Purchased from Perkin-Elmer # ES-010-M400UA • [^3H]DPCPX (purchased from Perkin-Elmer NET-974, 8-cyclopentyl-1,3-dipropylxanthine, [dipropyl-2,3-^3H(N)]. • Wheatgerm agglutinin-coated yttrium silicate SPA beads (Purchased from GE Healthcare #RPNQ0023). Dilute to 25 mg/ml in assay buffer. Store at 4° C. • Assay Buffer—Dulbecco's phosphate buffered saline without calcium and without magnesium+10 mM MgCl2 • Adenosine deaminase from calf intestine, 10 mg/2 ml (Roche #10 102 105 001). • DMSO • DPCPX (A1 antagonist) from Tocris Bioscience Compound Dilution • Dilute compounds to 1 mM in 100% DMSO
Make serial dilutions as necessary (i.e., 1:10, 1:3) in 100% DMSO.
Dilute 1:20 into assay buffer (i.e. 3 ul into 57 ul buffer). This is a 5× solution in 5% DMSO.
• Dilute [^3H]DPCPX to 1.75 nM in assay buffer. This is a 2.5× solution. The final concentration in the assay is 0.7 nM. Calculate the concentration by counting two 5 ul aliquots. Membrane Preparation • Use 5 ug of membrane/well. Dilute membranes to 250 ug/ml in assay buffer. Treat with 20 ug/ml adenosine deaminase (ADA) for 15 minutes at room temperature to degrade endogenous adenosine. Membrane-Bead Mixture • Use 25 ug/well wheatgerm agglutinin-coated yttrium silicate SPA beads • Mix ADA-treated membranes and SPA beads together for 30 min prior to assay. Assay Assembly • Add in order to a Perkin-Elmer Optiplate-384: 10 ul of 5× compound, 20 ul of 2.5× [^3H]DPCPX, 20 ul membrane-bead mixture. Incubate for one hour at room temperature with agitation. • Include total binding (assay buffer+1% DMSO) and non-specific binding (DPCPX, 1 uM) wells. Counting and Calculations

human A2a receptor, sequence (P29274 whole entry): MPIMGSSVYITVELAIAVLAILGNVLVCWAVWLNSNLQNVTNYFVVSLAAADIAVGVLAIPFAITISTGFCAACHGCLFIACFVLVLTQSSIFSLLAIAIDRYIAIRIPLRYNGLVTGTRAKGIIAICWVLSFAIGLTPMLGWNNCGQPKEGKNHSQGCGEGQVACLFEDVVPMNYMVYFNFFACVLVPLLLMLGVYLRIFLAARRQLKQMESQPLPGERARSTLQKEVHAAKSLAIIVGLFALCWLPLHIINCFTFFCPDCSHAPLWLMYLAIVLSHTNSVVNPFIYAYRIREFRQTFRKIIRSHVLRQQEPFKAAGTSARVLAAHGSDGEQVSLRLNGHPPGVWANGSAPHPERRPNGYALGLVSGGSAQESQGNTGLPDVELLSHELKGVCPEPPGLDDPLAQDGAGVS

| SMILES | Ki [1] | A2a selectivity (A2a A1 binding selectivity) [2] |
| --- | --- | --- |
| COc1ccc(CNC(=O)c2nc(N)nc3c(OC)cccc23)nc1 [Example 22, 2-amino-8-methoxy-N-[(5-methoxy-2-pyridyl)methyl]quinazoline-4-carboxamide] | 7.8 nM | 52 |
| COc1cccnc1CNC(=O)c1nc(N)nc2c(OC)cccc12 [Example 23, 2-amino-8-methoxy-N-[(3-methoxy-2-pyridyl)methyl]quinazoline-4-carboxamide] | 3 nM | 110 |
| COc1cccc2c(C(=O)NCc3ncccc3C)nc(N)nc12 [Example 24, 2-amino-8-methoxy-N-[(3-methyl-2-pyridyl)methyl]quinazoline-4-carboxamide] | 0.9 nM | 180 |
| COc1cccc2c(C(=O)NCc3ncccc3F)nc(N)nc12 [Example 25, 2-amino-N-[(3-fluoro-2-pyridyl)methyl]-8-methoxy-quinazoline-4-carboxamide] | 1.4 nM | 221 |
| COc1cccc2c(C(=O)NCc3ccc(F)cn3)nc(N)nc12 [Example 26, 2-amino-N-[(5-fluoro-2-pyridyl)methyl]-8-methoxy-quinazoline-4-carboxamide] | 6.6 nM | 89 |
| COc1cccc2c(C(=O)NCc3cccc(F)n3)nc(N)nc12 [Example 27, 2-amino-N-[(6-fluoro-2-pyridyl)methyl]-8-methoxy-quinazoline-4-carboxamide] | 1.5 nM | 148 |
| COc1cccc2c(C(=O)NCc3ncc(C)cc3C)nc(N)nc12 [Example 28, 2-amino-N-[(3,5-dimethyl-2-pyridyl)methyl]-8-methoxy-quinazoline-4-carboxamide] | 1.5 nM | 117 |
| COc1cccc2c(C(=O)NCc3ncc(F)cc3F)nc(N)nc12 [Example 29, 2-amino-N-[(3,5-difluoro-2-pyridyl)methyl]-8-methoxy-quinazoline-4-carboxamide] | 2.9 nM | 118 |

Other lines, results leading:

| Ki [1] | A2a selectivity (A2a A1 binding selectivity) [2] | SMILES |
| --- | --- | --- |
| 1.5 nM | 138 | COc1cccc2c(C(=O)NCc3ccc4ccccc4n3)nc(N)nc12 [Example 30, 2-amino-8-methoxy-N-(2-quinolylmethyl)quinazoline-4-carboxamide] |
| 1.6 nM | 105 | COc1cccc2c(C(=O)NCc3nc(-c4ccccc4)c(C)o3)nc(N)nc12 [Example 31, 2-amino-8-methoxy-N-[(5-methyl-4-phenyl-oxazol-2-yl)methyl]quinazoline-4-carboxamide] |
| 1.8 nM | 370 | COc1cccc2c(C(=O)NC3CCc4cccnc43)nc(N)nc12 (stereo not drawn) [Example 32, 2-amino-N-(6,7-dihydro-5H-cyclopenta[b]pyridin-7-yl)-8-methoxy-quinazoline-4-carboxamide] |
| 5.3 nM | 60 | COc1cccc2c(C(=O)N[C@@H]3CCc4ccccc43)nc(N)nc12 [Example 33, 2-amino-N-[(1R)-indan-1-yl]-8-methoxy-quinazoline-4-carboxamide] |
| 20 nM | 46 | COc1cccc2c(C(=O)NC3CCc4ccccc4C3)nc(N)nc12 (stereo not drawn) [Example 34, 2-amino-8-methoxy-N-[2-tetralin-2-yl]quinazoline-4-carboxamide] |
| 180 nM | 48 | COc1cccc2c(C(=O)N[C@H]3CCCc4cccnc43)nc(N)nc12 [Example 35, 2-amino-8-methoxy-N-[(8S)-5,6,7,8-tetrahydroquinolin-8-yl]quinazoline-4-carboxamide] |
| 2.6 nM | 114 | COc1cccc2c(C(=O)N[C@@H](CO)c3ccccc3)nc(N)nc12 [Example 36, 2-amino-N-[(1R)-2-hydroxy-1-phenyl-ethyl]-8-methoxy-quinazoline-4-carboxamide] |
